Source: patent publication US8119661B2, “Piperidine derivatives and their use as muscarinic receptor modulators” (AstraZeneca AB, priority 2007, dated 2012)

How the values were obtained:
cloned human M4 receptor = biological target: T1, cloned human M4 receptor (Homo sapiens, UniProt P08173); assay: hM4 receptor GTPγS binding; format: biochemical; details: CHO membranes expressing hM4, [35S]GTPγS binding
T1 construct: purchased Perkin-Elmer RBHM4M; host or cells: CHO cell membranes
T1 sequence (P08173 1-479): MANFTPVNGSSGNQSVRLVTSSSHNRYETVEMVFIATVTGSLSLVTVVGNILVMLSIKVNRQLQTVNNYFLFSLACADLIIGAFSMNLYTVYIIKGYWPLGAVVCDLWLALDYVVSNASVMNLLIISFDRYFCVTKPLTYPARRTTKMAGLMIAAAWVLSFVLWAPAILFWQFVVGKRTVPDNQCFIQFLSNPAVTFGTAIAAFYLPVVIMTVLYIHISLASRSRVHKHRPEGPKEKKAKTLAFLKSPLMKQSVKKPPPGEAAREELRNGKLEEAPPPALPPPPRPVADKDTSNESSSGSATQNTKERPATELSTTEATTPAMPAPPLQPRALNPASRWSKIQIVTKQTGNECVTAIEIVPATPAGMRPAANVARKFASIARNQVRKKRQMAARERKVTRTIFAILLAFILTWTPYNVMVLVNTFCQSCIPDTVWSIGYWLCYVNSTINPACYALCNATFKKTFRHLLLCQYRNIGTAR
Procedure: Membranes produced from Chinese hamster ovary cells (CHO) expressing the cloned human M4 receptor (human Muscarinic receptor subtype 4, gene bank access NM_000741), are obtained from Perkin-Elmer (RBHM4M). The membranes are thawed at 37° C., passed 3 times through a 23-gauge blunt-end needle, diluted in the GTPγS binding buffer (50 mM Hepes, 20 mM NaOH, 100 mM NaCl, 1 mM EDTA, 5 mM MgCl2, pH 7.4, 100 μM DTT). The EC50, IC50 and Emax of the compounds of the invention are evaluated from 10-point dose-response curves (three fold concentration range) done in 60 μl in 384-well non-specific binding surface plate (Corning). Ten microliters from the dose-response curves plate (5× concentration) are transferred to another 384 well plate containing 25 μl of the following: 10 μg of hM4 membranes, 500 μg of Flashblue beads (Perkin-Elmer) and GDP 40 μM. An additional 15 μl containing 3.3× (60,000 dpm) of GTPγ^35S (0.4 nM final) are added to the wells resulting in a total well volume of 50 μl. Basal and maximal stimulated [^35S]GTPγS binding are determined in absence and presence of 30 μM final of acetylcholine agonist. The membranes/beads mix are pre-incubated for 15 minutes at room temperature with 40 μM GDP prior to distribution in plates (20 μM final). The reversal of acetylcholine-induced stimulation (10 μM final) of [^35S]GTPγS binding is used to assay the antagonist properties (IC50) of the compounds. The plates are incubated for 60 minutes at room temperature then centrifuged at 400 rpm for 5 minutes. The radioactivity (cpm) is counted in a Trilux (Perkin-Elmer).
(§1) Values of EC50, IC50 and Emax are obtained using sigmoidal fits of a non-linear curve-fitting program (XLfit version 4.2.2 Excel add-in version 4.2.2 build 18 math 1Q version 2.1.2 build 18) of percent stimulated [^35S]GTPγS binding vs. log(molar ligand). All pEC50 and pIC50 values are reported as arithmetic means±standard error of mean of ‘n’ independent experiments.

cloned human M2 receptor = biological target: T2, cloned human M2 receptor (Homo sapiens, UniProt P08172); assay: hM2 receptor GTPγS binding; format: biochemical; details: CHO membranes expressing hM2, [35S]GTPγS binding
T2 construct: purchased Perkin-Elmer RBHM2M; host or cells: CHO cell membranes
T2 sequence (P08172 1-466): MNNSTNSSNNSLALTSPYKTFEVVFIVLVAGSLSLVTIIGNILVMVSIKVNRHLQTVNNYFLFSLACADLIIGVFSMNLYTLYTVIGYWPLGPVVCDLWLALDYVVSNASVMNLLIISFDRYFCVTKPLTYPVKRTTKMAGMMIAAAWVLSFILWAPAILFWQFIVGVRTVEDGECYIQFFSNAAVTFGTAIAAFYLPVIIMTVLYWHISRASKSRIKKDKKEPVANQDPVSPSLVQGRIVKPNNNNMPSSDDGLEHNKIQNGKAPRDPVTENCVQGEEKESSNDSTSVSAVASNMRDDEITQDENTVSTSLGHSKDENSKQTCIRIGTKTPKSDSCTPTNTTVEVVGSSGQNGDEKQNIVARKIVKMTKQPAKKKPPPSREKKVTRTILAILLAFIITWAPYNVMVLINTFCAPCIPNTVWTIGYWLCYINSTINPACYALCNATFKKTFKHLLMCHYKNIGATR
Procedure: Membranes produced from Chinese hamster ovary cells (CHO) expressing the cloned human M2 receptor (human Muscarinic receptor subtype 2, gene bank access NM_000739), are obtained from Perkin-Elmer (RBHM2M). The membranes are thawed at 37° C., passed 3 times through a 23-gauge blunt-end needle, diluted in the GTPγS binding buffer (50 mM Hepes, 20 mM NaOH, 100 mM NaCl, 1 mM EDTA, 5 mM MgCl2, pH 7.4, 100 μM DTT). The EC50, IC50 and Emax of the compounds of the invention are evaluated from 10-point dose-response curves (three fold concentration range) done in 60 μl in 384-well non-specific binding surface plate (Corning). Ten microliters from the dose-response curves plate (5× concentration) are transferred to another 384 well plate containing 25 μl of the following: 5 μg of hM2 membranes, 500 μg of Flashblue beads (Perkin-Elmer) and GDP 25 μM. An additional 15 μl containing 3.3× (60,000 dpm) of GTPγ^35S (0.4 nM final) are added to the wells resulting in a total well volume of 50 μl. Basal and maximal stimulated [^35S]GTPγS binding are determined in absence and presence of 30 μM final of acetylcholine agonist. The membranes/beads mix are pre-incubated for 15 minutes at room temperature with 25 μM GDP prior to distribution in plates (12.5 μM final). The reversal of acetylcholine-induced stimulation (2 μM final) of [^35S]GTPγS binding is used to assay the antagonist properties (IC50) of the compounds. The plates are incubated for 60 minutes at room temperature then centrifuged at 400 rpm for 5 minutes. The radioactivity (cpm) is counted in a Trilux (Perkin-Elmer).
as §1

[1] = tested on: SNL rats (heat hyperalgesia); assay: Rat SNL heat hyperalgesia assay; format: in vivo; details: sc, male Sprague Dawley SNL rats, paw withdrawal latency, morphine s.c. 30 min before testing, example 2 per os 60 min before testing, combination ratio example 2:morphine 1:1.56
Procedure: Rats undergo spinal nerve ligation surgery as described in Kim and Chung (1992) (reference 1). Briefly, rats are anesthetized with isoflurane, the left L5 and L6 are isolated and tightly ligated with 4-0 silk thread. The wound is closed by suturing and applying tissue adhesive. Compound testing is performed at day 9 to day 36 post-surgery.
For behavioral testing, the animals are acclimatized to the test room environment for a minimum of 30 min. In order to assess the degree of hyperalgesia, the animals are placed on a glass surface (maintained at 30° C.), and a heat-source is focused onto the plantar surface of the left paw. The time from the initiation of the heat until the animal withdraws the paw is recorded. Each animal is tested twice (with an interval of 10 min between the two tests). A decrease in Paw Withdrawal Latency (PWL, average of the two tests) relative to naïve animals indicates a hyperalgesic state. The rats with a PWL of at least 2 seconds less than average PWL of Naïve group are selected for compound testing. […]
In order to assess the degree of heat hyperalgesia, the rats were individually placed in Plexiglas boxes on the glass surface (maintained at 30° C.) of a paw thermal stimulator system (Model 390, series 8, IITC Life Science, Woodland Hills, USA) and allowed to acclimate for 30 min. […] Paw withdrawal latencies (PWLs) were calculated as the mean of the two values.

CC(C)OC(=O)N1CCC(C)(N2CCC(N3C(=O)N[C@H]4CCCC[C@@H]43)CC2)CC1 [Example 02, Propan-2-yl 4-[4-[(3aS,7aS)-2-oxo-3a,4,5,6,7,7a-hexahydro-3H-benzoimidazol-1-yl]-1-piperidyl]-4-methyl-piperidine-1-carboxylate]
EC50 (cloned human M4 receptor): > 30 µM
EC50 (cloned human M2 receptor): > 0.2 µM
ED50 [1]: 2.4 µmol/kg

CCOC(=O)N1CCC(C)(N2CCC(N3C(=O)N[C@H]4CCCC[C@@H]43)CC2)C1 (single isomer, unassigned) [Example 22]
EC50 (cloned human M4 receptor): 3.47 µM
EC50 (cloned human M2 receptor): 1.17 µM

CC1(N2CCC(N3C(=O)C[C@H]4CCCC[C@@H]43)CC2)CCN(C(=O)C2CC2)CC1 [Example 15, (3aR,7aS)-1-[1-[1-(cyclopropanecarbonyl)-4-methyl-4-piperidyl]-4-piperidyl]-3a,4,5,6,7,7a-hexahydro-3H-indol-2-one]
EC50 (cloned human M4 receptor): > 30 µM
EC50 (cloned human M2 receptor): > 15 µM

CC(C)OC(=O)N1CCC(C)(N2CCC(N3C(=O)N[C@@H]4CCCC[C@@H]43)CC2)CC1 (relative stereo) [Example 13, Propan-2-yl 4-[4-[(cis)-2-oxo-3a,4,5,6,7,7a-hexahydro-3H-benzoimidazol-1-yl]-1-piperidyl]-4-methyl-piperidine-1-carboxylate]
EC50 (cloned human M4 receptor): > 30 µM
EC50 (cloned human M2 receptor): > 30 µM
